Results reported in PubChem BioAssay AID198 (DTP/NCI, 2004).
Values joined by “and” are separate entries in the source; they are usually repeats but may differ in a detail not shown here. Identical values can stand only once. Toxic doses and inconclusive results are not listed. *1 amine or outer side, *2 acyl side, *3 side chain or, on linkers, in order; H or OH if unused. Where a SMILES comes first, the peptide text is derived from it. Bridges are numbered along the chain shown (N, C = ends). Roman numbers before positions name the chains, in order. [ ]: non-standard residue; d: D form. Actinocin(9to1) = Cc1c2oc3c(C)ccc(C(=O)[*:1])c3nc-2c(C(=O)[*:2])c(N)c1=O; aThr = C[C@H](O)[C@H](N)C(=O)O; NMeV = CN[C@H](C(=O)O)C(C)C; Sar = CNCC(=O)O

System: B16 melanoma ip, C57BL/6 mice, median survival T/C
Test: NCI In Vivo Anticancer Drug Screen. Data for tumor model B16 Melanoma (intraperitoneal) in C57BL/6 mice
Settings: endpoint: median survival time, higher = longer survival
Protocol: The antitumor activity of compounds was measured in mice bearing transplantable tumors. Survival or tumor size were measured and the results are expressed as the measurement made in the treated group (T) divided by the measurement made in the vehicle treated control group (C). The tumor model used in this assay is B16 Melanoma (intraperitoneal) in C57BL/6 mice

[1] = dose: 3.13 mg/kg/injection, schedule: Q01DX009 (ip), vehicle: saline
[2] = dose: 6.25 mg/kg/injection, schedule: Q01DX009 (ip), vehicle: saline
[3] = dose: 12.5 mg/kg/injection, schedule: Q01DX009 (ip), vehicle: saline
[4] = dose: 25.0 mg/kg/injection, schedule: Q01DX009 (ip), vehicle: saline
[5] = dose: 62.5 mg/kg/injection, schedule: Q01DX009 (ip), vehicle: saline
[6] = dose: 125.0 mg/kg/injection, schedule: Q01DX009 (ip), vehicle: saline
[7] = dose: 250.0 mg/kg/injection, schedule: Q01DX009 (ip), vehicle: saline
[8] = dose: 50.0 mg/kg/injection, schedule: Q01DX009 (ip), vehicle: saline
[9] = dose: 100.0 mg/kg/injection, schedule: Q01DX009 (ip), vehicle: saline
[10] = dose: 200.0 mg/kg/injection, schedule: Q01DX009 (ip), vehicle: saline
[11] = dose: 400.0 mg/kg/injection, schedule: Q01DX009 (ip), vehicle: saline
[12] = dose: 100.0 mg/kg/injection, schedule: Q01DX009 (ip), vehicle: saline with Tween-80
[13] = dose: 200.0 mg/kg/injection, schedule: Q01DX009 (ip), vehicle: saline with Tween-80
[14] = dose: 0.1 mg/kg/injection, schedule: Q01DX009 (ip), vehicle: saline
[15] = dose: 0.2 mg/kg/injection, schedule: Q01DX009 (ip), vehicle: saline
[16] = dose: 400.0 mg/kg/injection, schedule: Q01DX009 (ip), vehicle: saline with Tween-80
[17] = dose: 31.3 mg/kg/injection, schedule: Q01DX009 (ip), vehicle: saline

Nc1ccc(Cl)cc1N
T/C (dose: 12.5 mg/kg/injection, schedule: Q01DX009 (ip), vehicle: other): 106 % of control | T/C (dose: 25.0 mg/kg/injection, schedule: Q01DX009 (ip), vehicle: other): 100 % of control | T/C (dose: 50.0 mg/kg/injection, schedule: Q01DX009 (ip), vehicle: other): 100 % of control | T/C (dose: 100.0 mg/kg/injection, schedule: Q01DX009 (ip), vehicle: other): 90 % of control

Cn1cc(NC(=O)c2cc(NC(=O)CN=C(N)N)cn2C)cc1C(=O)NCCC(=N)N
T/C [1]: 100 % of control and 107 % of control | T/C [2]: 100 % of control and 107 % of control | T/C [3]: 100 % of control | T/C [4]: 86 % of control

CN[C@H]1CCc2cc(OC)c(OC)c(OC)c2-c2ccc(OC)c(=O)cc21
T/C (dose: 1.25 mg/kg/injection, schedule: Q01DX009 (ip), vehicle: saline): 100 % of control | T/C (dose: 1.3 mg/kg/injection, schedule: Q01DX009 (ip), vehicle: saline): 100 % of control | T/C (dose: 2.5 mg/kg/injection, schedule: Q01DX009 (ip), vehicle: saline): 100 % of control and 103 % of control | T/C (dose: 5.0 mg/kg/injection, schedule: Q01DX009 (ip), vehicle: saline): 93 % of control and 113 % of control | T/C (dose: 10.0 mg/kg/injection, schedule: Q01DX009 (ip), vehicle: saline): 93 % of control

Cn1c(=O)c2ncnnc2n(C)c1=O
T/C [2]: 106 % of control | T/C [3]: 103 % of control

COC(N)=O
T/C [5]: 100 % of control and 107 % of control | T/C [6]: 103 % of control and 106 % of control | T/C [7]: 100 % of control and 107 % of control | T/C (dose: 500.0 mg/kg/injection, schedule: Q01DX009 (ip), vehicle: saline): 110 % of control

COc1cc(C[C@H]2c3cc(OC)c(OC)cc3CCN2C)c(Oc2cc3c(cc2OC)-c2c(OC)c(OC)cc4c2[C@H](C3)N(C)CC4)cc1OC
T/C [4]: 96 % of control | T/C [8]: 96 % of control | T/C [9]: 92 % of control

O=NN(CCCl)C(=O)Nc1ccc(CCO)cc1
T/C (dose: 1.56 mg/kg/injection, schedule: Q01DX009 (ip), vehicle: saline): 195 % of control | T/C [1]: 190 % of control

CC(Cc1ccc(O)c(O)c1)C(C)Cc1ccc(O)c(O)c1 (centres undefined)
T/C [8]: 103 % of control | T/C [9]: 106 % of control | T/C [10]: 113 % of control | T/C [11]: 113 % of control

CN(C)CCCN1c2ccccc2Sc2ccc(Cl)cc21
T/C [1]: 100 % of control and 97 % of control | T/C [2]: 100 % of control and 102 % of control | T/C [3]: 111 % of control and 105 % of control | T/C [4]: 100 % of control and 108 % of control

Nc1nc(CCl)nc(Nc2ccccc2)n1
T/C [12]: 96 % of control | T/C [13]: 100 % of control

CO[C@H](C(=O)[C@@H](O)[C@@H](C)O)[C@@H]1Cc2cc3cc(OC4CC(OC5CC(O)C(O)C(C)O5)C(O)C(C)O4)c(C)c(O)c3c(O)c2C(=O)[C@H]1OC1CC(OC2CC(OC3CC(C)(O)C(O)C(C)O3)C(O)C(C)O2)C(O)C(C)O1 (some centres undefined)
T/C (dose: 0.25 mg/kg/injection, schedule: Q01DX009 (ip), vehicle: saline): 106 % of control | T/C (dose: 0.5 mg/kg/injection, schedule: Q01DX009 (ip), vehicle: saline): 100 % of control | T/C (dose: 1.0 mg/kg/injection, schedule: Q01DX009 (ip), vehicle: saline): 113 % of control

CCCCc1ccc(NC(=O)N(CCCl)N=O)cc1
T/C [1]: 200 % of control | T/C [2]: 210 % of control

O=CC(S)CO (centres undefined)
T/C [4]: 120 % of control | T/C [8]: 120 % of control

CC(C)S(=O)(=O)/C(Cl)=C(/Cl)C(Cl)=C(Cl)Cl
T/C (dose: 25.0 mg/kg/injection, schedule: Q01DX009 (ip), vehicle: saline with Tween-80): 94 % of control | T/C (dose: 50.0 mg/kg/injection, schedule: Q01DX009 (ip), vehicle: saline with Tween-80): 97 % of control

COc1cc(NS(C)(=O)=O)ccc1Nc1c2ccccc2nc2ccccc12
T/C (dose: 0.5 mg/kg/injection, schedule: Q01DX009 (ip), vehicle: water): 160 % of control | T/C (dose: 1.0 mg/kg/injection, schedule: Q01DX009 (ip), vehicle: Klucel (hydroxypropylcellulose) (HPC)): 172 % of control | T/C (dose: 2.0 mg/kg/injection, schedule: Q01DX009 (ip), vehicle: Klucel (hydroxypropylcellulose) (HPC)): 179 % of control | T/C (dose: 2.0 mg/kg/injection, schedule: Q01DX009 (ip), vehicle: water): 222 % of control | T/C (dose: 4.0 mg/kg/injection, schedule: Q01DX009 (ip), vehicle: water): 246 % of control

Cc1c2oc3c(C)ccc(C(=O)N[C@@H]4C(=O)N[C@H](C(C)C)C(=O)N5CCC[C@H]5C(=O)N(C)CC(=O)N(C)[C@@H](C(C)C)C(=O)O[C@H]4C)c3nc-2c(C(=O)N[C@@H]2C(=O)N[C@H](C(C)C)C(=O)N3CCC[C@H]3C(=O)N(C)CC(=O)N(C)[C@@H](C(C)C)C(=O)O[C@H]2C)c(N)c1=O (I: [aThr][dV]P[Sar][NMeV] / II: [aThr][dV]P[Sar][NMeV]; ester I:1-I:C, II:1-II:C; linker I:N-II:N via Actinocin(9to1))
T/C (dose: 0.03 mg/kg/injection, schedule: Q01DX009 (ip), vehicle: saline): 150 % of control and 165 % of control | T/C (dose: 0.05 mg/kg/injection, schedule: Q01DX009 (ip), vehicle: saline): 156 % of control and 164 % of control and 193 % of control | T/C [14]: 203 % of control | T/C [15]: 117 % of control

O=C(O)CCCCSc1ncnc2nc[nH]c12
T/C [12]: 110 % of control | T/C [13]: 103 % of control | T/C [16]: 114 % of control

Cc1nc(N)sc1CCCl
T/C (dose: 10.0 mg/kg/injection, schedule: Q01DX009 (ip), vehicle: saline sonified): 100 % of control | T/C (dose: 20.0 mg/kg/injection, schedule: Q01DX009 (ip), vehicle: saline sonified): 107 % of control | T/C (dose: 40.0 mg/kg/injection, schedule: Q01DX009 (ip), vehicle: saline sonified): 103 % of control | T/C (dose: 80.0 mg/kg/injection, schedule: Q01DX009 (ip), vehicle: saline sonified): 107 % of control

CNNCc1ccc(C(=O)NC(C)C)cc1
T/C [8]: 121 % of control | T/C [9]: 121 % of control | T/C [10]: 110 % of control and 121 % of control

COc1cc(/C=N\O)nc(-c2ccccn2)c1
T/C [4]: 100 % of control | T/C [8]: 106 % of control | T/C [9]: 93 % of control

C[n+]1c2ccccc2c(Nc2ccc(NS(=O)(=O)CCCCN=C(N)N)cc2)c2ccc(N)cc21
T/C (dose: 0.38 mg/kg/injection, schedule: Q01DX009 (ip), vehicle: water): 115 % of control | T/C (dose: 0.75 mg/kg/injection, schedule: Q01DX009 (ip), vehicle: water): 158 % of control | T/C (dose: 1.5 mg/kg/injection, schedule: Q01DX009 (ip), vehicle: water): 151 % of control | T/C (dose: 3.0 mg/kg/injection, schedule: Q01DX009 (ip), vehicle: water): 113 % of control | T/C (dose: 6.0 mg/kg/injection, schedule: Q01DX009 (ip), vehicle: water): 101 % of control

OCC1OC(n2cnc3c(Cl)ncnc32)C(O)C1O (centres undefined)
T/C [17]: 106 % of control and 107 % of control | T/C [5]: 93 % of control and 100 % of control | T/C [6]: 93 % of control and 100 % of control | T/C [7]: 86 % of control and 100 % of control

COc1cc2c(cc1OC)C(c1cc(OC)c(OC)c(OC)c1)C1(O)C(=O)OCC1(O)C2 (centres undefined)
T/C [8]: 93 % of control | T/C [9]: 93 % of control | T/C [10]: 86 % of control | T/C [11]: 86 % of control

CCCC/C=C/CCCCCCCC(=O)OCCCCCCCCCCCCCCCC
T/C (dose: 400.0 mg/kg/injection, schedule: Q01DX001 (ip), vehicle: saline with Tween-80): 86 % of control

CC(C)=CCC/C(C)=C/CO
T/C (dose: 15.6 mg/kg/injection, schedule: Q01DX009 (ip), vehicle: saline): 93 % of control | T/C [17]: 96 % of control | T/C [5]: 86 % of control | T/C [6]: 86 % of control

CC1CC(C)(O)CC(C(O)CC2CC(=O)NC(=O)C2)C1=O (centres undefined)
T/C [14]: 111 % of control | T/C [15]: 122 % of control | T/C (dose: 0.4 mg/kg/injection, schedule: Q01DX009 (ip), vehicle: saline): 116 % of control | T/C (dose: 0.8 mg/kg/injection, schedule: Q01DX009 (ip), vehicle: saline): 86 % of control

C/C(=C\COc1ccc2ccc(=O)oc2c1)C1=CC(=O)C(C)(C)O1
T/C [12]: 94 % of control | T/C [13]: 100 % of control | T/C [16]: 94 % of control

CN(Cc1cnc2nc(N)nc(N)c2n1)c1ccc(C(=O)N[C@@H](CCC(=O)O)C(=O)O)cc1
T/C (dose: 0.38 mg/kg/injection, schedule: Q01DX009 (ip), vehicle: saline): 100 % of control and 106 % of control | T/C (dose: 0.75 mg/kg/injection, schedule: Q01DX009 (ip), vehicle: saline): 100 % of control and 106 % of control | T/C (dose: 1.5 mg/kg/injection, schedule: Q01DX009 (ip), vehicle: saline): 93 % of control and 100 % of control | T/C (dose: 3.0 mg/kg/injection, schedule: Q01DX009 (ip), vehicle: saline): 100 % of control
